Where two headings read alike, the source gives them in different places. Blank lines part the entries; values can stand above or below the compound they belong to.
Key:
[1] = test system: Human Multidrug Resistant Breast Cancer Cells (MCF-7/Adr); assay: Cell growth inhibition by direct cell counting, MCF-7/Adr; type: cell-based; conditions: read-out: IG50 MCF-7/Adr
Method: (§1) Cells were taken out carefully from liquid nitrogen (Frozen pipes), and the cell freezing medium was thawed rapidly in water bath at 37° C. in order to rapidly pass through the temperature range of 0 to 5° C. within which the cell is easily damaged. Cell suspension was sucked with pipette gun and put it into centrifugal tubes under sterile condition, then was centrifuged for 3 min at 1300 r/min. The supernatant was gently discarded, and then added with a fresh medium to pipette and mix the cells. Finally, the cells were transferred into culture flasks, and cultured in a carbon dioxide incubator. The medium was changed once after 24 h.
(§2) After resuscitation, the cells were passed for 2-3 generations till they became stable, then they were used for the experiments. Each passage was based on the standard that all cells were spread over the bottoms of culture flasks.
(§3) Cell suspensions of a certain density (5×10^4 cells/mL) were plated at 24-well plate, 2 mL/well. Different concentration of drugs were added thereto, and incubated or some time. Then, cells were counted under the microscope. The ratio of total number of cells in test group to the total number of cells in control group is the cell growth inhibition rate under the concentration condition. The total number of cells in cell suspension, which were treated by drugs, could be counted by blood count board. Inhibition rate was calculated using the formula: […]
(§4) According to cell growth inhibition rate of each concentration of drugs, half inhibitory concentration could be calculated. (IG50 is the drug concentration, when cell growth inhibition rate was 50%.)
(§5) 7) The Results of the Growth Inhibitory Activity of the Compounds on Human Breast Cancer Cells (MCF-7) and Human Multidrug Resistant Breast Cancer Cells (MCF-7/Adr) were Listed in Table 3.

[2] = test system: Human Breast Cancer Cells (MCF-7); assay: Cell growth inhibition by direct cell counting, MCF-7; type: cell-based; conditions: read-out: IG50 MCF-7
Method: as §1, §2, §3, §4, §5

[3] = MCF-7/Adr multidrug resistant cells

Compound: CC1CCC2C(C)[C@@H](Oc3ccc(Cn4ccnn4)cc3)OC3OC4(C)CCC1C32OO4 (stereo partly drawn) [Example 3, (10S)—O-[4-((1,2,3-triazol-1-yl)methyl)phenyl]-dihydroartemisinin]
IC50 [1, 3]: 718 nM | IC50 ([2]; MCF-7 cells): 1320 nM

Compound: C[C@H]1[C@@H](Oc2ccc(Cn3cncn3)cc2)O[C@@H]2O[C@@]3(C)CC[C@H]4[C@H](C)CC[C@@H]1[C@@]24OO3 [Example 4, (10S)—O-[4-((1,2,4-triazol-1-yl)methyl)phenyl]-dihydroartemisinin]
IC50 [1, 3]: 476 nM | IC50 ([2]; MCF-7 cells): 1620 nM

Compound: COc1ccccc1N1CCN(Cc2ccc(O[C@H]3O[C@@H]4O[C@@]5(C)CC[C@H]6[C@H](C)CC[C@@H]([C@H]3C)[C@@]46OO5)cc2)CC1 [Example 11, (10)-O-[4-[(4-(2-methoxyphenyl)piperazin-1-yl)methyl]phenyl](10S)-dihydroartemisinin]
IC50 [1, 3]: 456 nM | IC50 ([2]; MCF-7 cells): 475 nM

Compound: C[C@H]1[C@@H](Oc2ccc(CN3CCN(C)CC3)cc2)O[C@@H]2O[C@@]3(C)CC[C@H]4[C@H](C)CC[C@@H]1[C@@]24OO3 [Example 12, (10S)—O-[4-((4-methylpiperazin-1-yl)methyl)phenyl]-dihydroartemisinin]
IC50 [1, 3]: 190 nM | IC50 ([2]; MCF-7 cells): 1050 nM

Compound: C[C@H]1[C@@H](Oc2ccc(CN3CCN(c4ccc(F)cc4)CC3)cc2)O[C@@H]2O[C@@]3(C)CC[C@H]4[C@H](C)CC[C@@H]1[C@@]24OO3 [Example 13]
IC50 [1, 3]: 330 nM | IC50 ([2]; MCF-7 cells): 267 nM

Compound: C[C@H]1[C@@H](Oc2ccc(CN3CCN(c4ccccn4)CC3)cc2)O[C@@H]2O[C@@]3(C)CC[C@H]4[C@H](C)CC[C@@H]1[C@@]24OO3 [Example 14, 10-O-[4-[(4-(2-pyridyl)piperazin-1-yl)methyl]phenyl]-(10S)-dihydroartemisinin]
IC50 [1, 3]: 1380 nM | IC50 ([2]; MCF-7 cells): 1280 nM

Compound: CC1CCC2C(C)[C@@H](Oc3ccc(CN4CCN(c5ncccn5)CC4)cc3)OC3OC4(C)CCC1C32OO4 (stereo partly drawn) [Example 15, 10-O-[4-[(4-(2-pyrimidinyl)piperazin-1-yl)methyl]phenyl]-(10S)-dihydroartemisinin]
IC50 [1, 3]: 1660 nM | IC50 ([2]; MCF-7 cells): 443 nM

Compound: C[C@H]1[C@@H](Oc2cccc(CN3CCN(c4ccccc4)CC3)c2)O[C@@H]2O[C@@]3(C)CC[C@H]4[C@H](C)CC[C@@H]1[C@@]24OO3 [Example 18, 10-O-[3-[(4-phenylpiperazin-1-yl)methyl]phenyl]-(10S)-dihydroartemisinin]
IC50 [1, 3]: 355 nM | IC50 ([2]; MCF-7 cells): 690 nM

Compound: CC1CCC2C(C)[C@@H](Oc3cccc(CN4CCN(Cc5ccccc5)CC4)c3)OC3OC4(C)CCC1C32OO4 (stereo partly shown) [Example 19]
IC50 [1, 3]: 1090 nM | IC50 ([2]; MCF-7 cells): 1190 nM

Compound: CC1CCC2C(C)[C@@H](Oc3ccc(/C=C/C(=O)N4CCOCC4)cc3)OC3OC4(C)CCC1C32OO4 (stereo partly drawn) [Example 21, (10S)—O-{4-[3-oxo-3-(morpholin-4-yl)-1-(E)-propen-1-yl]phenyl}-dihydroartemisinin]
IC50 ([2]; MCF-7 cells): 241 nM

Compound: CC1CCC2C(C)[C@@H](Oc3ccc(/C=C/C(=O)N4CCCCC4)cc3)OC3OC4(C)CCC1C32OO4 (stereo partly drawn) [Example 22, (10S)—O-{4-[3-oxo-3-(piperidin-1-yl)-1-(E)-propen-1-yl]phenyl}-dihydroartemisinin]
IC50 ([2]; MCF-7 cells): 6.07 nM

Compound: C[C@H]1[C@@H](Oc2ccc(/C=C/C(=O)N3CCC(N4CCCCC4)CC3)cc2)O[C@@H]2O[C@@]3(C)CC[C@H]4[C@H](C)CC[C@@H]1[C@@]24OO3 [Example 23]
IC50 ([2]; MCF-7 cells): 586 nM

Compound: COc1ccccc1N1CCN(C(=O)/C=C/c2ccc(O[C@H]3O[C@@H]4O[C@@]5(C)CC[C@H]6[C@H](C)CC[C@@H]([C@H]3C)[C@@]46OO5)cc2)CC1 [Example 27, (10S)—O-{4-[3-oxo-3-(4-(2-methoxyphenyl)piperazin-1-yl)-1-(E)-propen-1-yl]phenyl}-dihydroartemisinin]
IC50 ([2]; MCF-7 cells): 322 nM

Compound: CC1CCC2C(C)[C@@H](Oc3ccc(/C=C/C(=O)N4CCN(c5cccc(C(F)(F)F)c5)CC4)cc3)OC3OC4(C)CCC1C32OO4 (stereo partly drawn) [Example 28, (10S)—O-{4-[3-oxo-3-(4-(3-trifluoromethylphenyl)piperazin-1-yl)-1-(E)-propen-1-yl]phenyl}-dihydroartemisinin]
IC50 ([2]; MCF-7 cells): 91.1 nM

Compound: CC1CCC2C(C)[C@@H](Oc3ccc(/C=C/C(=O)N4CCN(Cc5ccccc5)CC4)cc3)OC3OC4(C)CCC1C32OO4 (stereo partly drawn) [Example 29, (10S)—O-{4-[3-oxo-3-(4-benzylpiperazin-1-yl)-1-(E)-propen-1-yl]phenyl}-dihydroartemisinin]
IC50 ([2]; MCF-7 cells): 15.6 nM

Compound: CC1CCC2C(C)[C@@H](Oc3ccc(/C=C/C(=O)N4CCN(c5ccccn5)CC4)cc3)OC3OC4(C)CCC1C32OO4 (stereo partly drawn) [Example 30, (10S)—O-{4-[3-oxo-3-(4-(2-pyridyl)piperazin-1-yl)-1-(E)-propen-1-yl]phenyl}-dihydroartemisinin]
IC50 ([2]; MCF-7 cells): 263 nM

Compound: CC1CCC2C(C)[C@@H](Oc3ccc(C=CC(=O)Oc4ccc(/C=C/C(=O)N5CCN(c6ncccn6)CC5)cc4)cc3)OC3OC4(C)CCC1C32OO4 (stereo partly drawn) [Example 32, 4-[(10S)-dihydroartemisinin-10-O-yl]phenyl-acrylic acid-4-[3-oxo-3-(4-(2-pyrimidinyl)piperazin-1-yl)-1-(E)-propen-1-yl]phenyl ester]
IC50 ([2]; MCF-7 cells): 408 nM

Compound: CC1CCC2C(C)[C@@H](Oc3ccc(CC(=O)N4CCOCC4)cc3)OC3OC4(C)CCC1C32OO4 (stereo partly drawn) [Example 34, (10S)—O-{4-[2-(morpholin-4-yl)-2-oxoethyl]phenyl}-dihydroartemisinin]
IC50 [1, 3]: 239 nM | IC50 ([2]; MCF-7 cells): 7580 nM

Compound: C[C@H]1[C@@H](Oc2ccc(CC(=O)N3CCCCC3)cc2)O[C@@H]2O[C@@]3(C)CC[C@H]4[C@H](C)CC[C@@H]1[C@@]24OO3 [Example 35, (10S)—O-{4-[2-(piperidin-1-yl)-2-oxoethyl]phenyl}-dihydroartemisinin]
IC50 [1, 3]: 62.4 nM | IC50 ([2]; MCF-7 cells): 1700 nM

Compound: CC1CCN(C(=O)Cc2ccc(O[C@H]3OC4OC5(C)CCC6C(C)CCC(C3C)C46OO5)cc2)CC1 (stereo partly drawn) [Example 36, (10S)—O-{4-[2-(4-methylpiperidin-1-yl)-2-oxoethyl]phenyl}-dihydroartemisinin]
IC50 [1, 3]: 104 nM | IC50 ([2]; MCF-7 cells): 549 nM

Compound: CC1CCCCN1C(=O)Cc1ccc(O[C@H]2O[C@@H]3O[C@@]4(C)CC[C@H]5[C@H](C)CC[C@@H]([C@H]2C)[C@@]35OO4)cc1 (stereo partly drawn) [Example 37, (10S)—O-{4-[2-(2-methylpiperidin-1-yl)-2-oxoethyl]phenyl}-dihydroartemisinin]
IC50 [2]: 1250 nM

Compound: CC1CC(C)CN(C(=O)Cc2ccc(O[C@H]3O[C@@H]4O[C@@]5(C)CC[C@H]6[C@H](C)CC[C@@H]([C@H]3C)[C@@]46OO5)cc2)C1 (stereo partly drawn) [Example 38, (10S)—O-{4-[2-(3,5-dimethylpiperidin-1-yl)-2-oxoethyl]phenyl}-dihydroartemisinin]
IC50 [1, 3]: 360 nM | IC50 ([2]; MCF-7 cells): 516 nM

Compound: CC1CCC2C(C)[C@@H](Oc3ccc(CC(=O)N4CCC(N5CCCCC5)CC4)cc3)OC3OC4(C)CCC1C32OO4 (stereo partly drawn) [Example 39, (10S)—O-{4-[2-[4-(piperidin-1-yl)piperidin-1-yl]-2-oxoethyl]phenyl}-dihydroartemisinin]
IC50 [1, 3]: 22.9 nM | IC50 ([2]; MCF-7 cells): 1150 nM

Compound: C[C@H]1[C@@H](Oc2ccc(CC(=O)N3CCN(c4ccccc4)CC3)cc2)O[C@@H]2O[C@@]3(C)CC[C@H]4[C@H](C)CC[C@@H]1[C@@]24OO3 [Example 40, (10S)—O-{4-[2-(4-phenylpiperazin-1-yl)-2-oxoethyl]phenyl}-dihydroartemisinin]
IC50 [1]: 79.1 nM | IC50 [2]: 2660 nM

Compound: COc1ccccc1N1CCN(C(=O)Cc2ccc(O[C@H]3OC4OC5(C)CCC6C(C)CCC(C3C)C46OO5)cc2)CC1 (stereo partly drawn) [Example 41, (10S)—O-{4-[2-[4-(2-methoxyphenyl)piperazin-1-yl]-2-oxoethyl]phenyl}-dihydroartemisinin]
IC50 [1, 3]: 29.8 nM | IC50 ([2]; MCF-7 cells): 790 nM

Compound: CC1CCC2C(C)[C@@H](Oc3ccc(CC(=O)N4CCN(c5ccc(F)cc5)CC4)cc3)OC3OC4(C)CCC1C32OO4 (stereo partly drawn) [Example 42, (10S)—O-{4-[2-[4-(4-fluorophenyl)piperazin-1-yl]-2-oxoethyl]phenyl}-dihydroartemisinin]
IC50 [1, 3]: 11.2 nM | IC50 ([2]; MCF-7 cells): 1090 nM

Compound: CC1CCC2C(C)[C@@H](Oc3ccc(CC(=O)N4CCN(C)CC4c4ccccc4)cc3)OC3OC4(C)CCC1C32OO4 (stereo partly drawn) [Example 43, (10S)—O-{4-[2-(4-methyl-2-phenylpiperazin-1-yl)-2-oxoethyl]phenyl}-dihydroartemisinin]
IC50 [1, 3]: 1060 nM | IC50 ([2]; MCF-7 cells): 2290 nM

Compound: CC1CCC2C(C)[C@@H](Oc3ccc(CC(=O)N4CCN(C5CCCCC5)CC4)cc3)OC3OC4(C)CCC1C32OO4 (stereo partly drawn) [Example 46, (10S)—O-{4-[2-(4-cyclohexylpiperazin-1-yl)-2-oxoethyl]phenyl}-dihydroartemisinin]
IC50 [1, 3]: 98 nM | IC50 ([2]; MCF-7 cells): 1120 nM

Compound: CC1CCC2C(C)[C@@H](Oc3ccc(CC(=O)NCc4ccccc4)cc3)OC3OC4(C)CCC1C32OO4 (stereo partly drawn) [Example 48, (10S)—O-[4-[2-(benzylamino)-2-oxoethyl]phenyl]-dihydroartemisinin]
IC50 ([2]; MCF-7 cells): 1400 nM

IC50 [1]: 180 nM | IC50 [2]: 1490 nM
Compound: (10S)—O-{4-[2-[4-(pyridin-2-yl)piperazin-1-yl]-2-oxoethyl]phenyl}-dihydroartemisinin [Example 44]

IC50 [1, 3]: 110 nM | IC50 ([2]; MCF-7 cells): 1490 nM
Compound: (10S)—O-{4-[2-[4-(pyrimidin-2-yl)piperazin-1-yl]-2-oxoethyl]phenyl}-dihydroartemisinin [Example 45]

— patent publication US9718837B2, “Nitrogen-containing heterocyclic ring substituted dihydroartemisinin derivatives and use thereof” (Shenyang Pharmaceutical University, priority 2013, dated 2017)
